Reference: patent US10513511B2, “Aqueous suspension formulation comprising 4-(4-(4-(((3R,5R)-5-((1H-1,2,4-triazol-1-yl)methyl)-5-(2,4-difluoro-phenyl)tetrahydrofuran-3-yl)methoxy)-3-methylphenyl) or a pharmaceutically acceptable salt thereof” (PULMOCIDE LIMITED, priority 2015, dated 2019)

Key:
[1] = system: Aspergillus fumigatus (azole susceptible strain: NCPF2010); experiment: Aspergillus fumigatus infection of human alveoli bilayers (transwells), azole susceptible strain; type: cell-based; settings: for MIC50 / MIC90: Aspergillus fumigatus, NCPF2010, 24 h; for MIC50: read-out: MIC50, invasion into the lower chamber in human alveoli bilayers; for MIC90: read-out: MIC90, invasion into the lower chamber in human alveoli bilayers; for GM Levels in the Lower Chamber, OD value / GM Levels in the Lower Chamber, % inhibition vs.control / DFB50: Days taken to reach a fungal burden of 50% of control: Compound (Ia) 0.1 μg/mL upper chamber, posaconazole 0.01 μg/mL lower chamber, combination of both
Experimental: (§1) In vitro models of human alveoli, consisting of a bilayer of human alveolar epithelial cells and endothelial cells, were prepared as previously described (Hope et al., 2007). This system allows administration of a test compound to the upper (“air” space) and/or lower (“systemic” space) compartments. This flexibility has been exploited to explore the effects of combination treatment by dosing Compound (I) to the upper chamber and posaconazole or other anti-fungal agents to the lower chamber. Primary human pulmonary artery endothelial cells (HPAEC) were harvested and diluted to 10^6 cells/mL in EGM-2 media (Lonza, Basel, Switzerland). Transwells were inverted and the cell suspension (100 μL/well) applied to the base of each transwell. The inverted transwells were incubated at RT within a flow hood for 2 hr after which they were turned upright. EGM-2 media was added to the lower (700 μL/well) and upper (100 μL/well) compartments and the transwells were incubated for 48 hr (37° C., 5% CO2). The EGM-2 media in the lower compartment was then replaced with fresh EGM-2 media. A549 cells were harvested and diluted to 5×10^5 cells/mL in 10% EBM, then added to the upper compartment (100 μL/well) of all transwells and the plates incubated for 72 hr (37° C., 5% CO2). Conidia of itraconazole sensitive Aspergillus fumigatus s (NCPF2010) and itraconazole resistant (TR34-L98H) strains were cultured separately in Sabouraud dextrose agar for 3 days. A stock conidia suspension of either strain was prepared from a Sabouraud dextrose agar culture by washing with PBS-tween (10 mL; PBS containing 0.05% Tween-20, 100 U/mL Penicillin and 100 U/mL Streptomycin). The conidia count was assessed using a Neubauer haemocytometer and adjusted to 10^6 conidia/mL with PBS. A working stock of conidia was prepared in EBM (10^5 conidia/mL) immediately prior to use.
(§2) Test and reference compounds (or neat DMSO as the vehicle) were added to the appropriate wells of 24-well plates (3 μL/well containing 600 μL of 2% FBS EBM) for lower compartment treatment and to 96-well plates (1 μL/well containing 200 μL of 2% FBS EBM) for the treatment of the upper compartment, to provide a final DMSO concentration of 0.5%. The media in the upper compartment was aspirated and that containing the appropriate test and reference compounds, or vehicle, were added (100 μL/well). Transwells were then transferred into the 24-well plate containing the test and reference compounds or DMSO vehicle. After incubation for 1 hr (35° C., 5% CO2) the conidia suspension (10 μL/well) was added to the upper compartment of each transwell. Plates were then incubated for 24 hr (35° C., 5% CO2). Supernatants from each compartment (5 μL/compartment) were collected and stored (−20° C.). Media was replaced daily after collection of the supernatants and all wells were treated with test and reference compounds or with DMSO, as described above, for 3 days. Samples continued to be collected until fungal growth was visible by eye in all transwells. The levels of GM in the supernatant in lower compartment were then measured by ELISA (BioRad, CA, USA) as an index of Aspergillus fumigatus invasion.

[2] = system: Aspergillus fumigatus (azole resistant strain: TR34/L98H); experiment: Aspergillus fumigatus infection of human alveoli bilayers (transwells), azole resistant strain; type: cell-based; settings: for MIC50 / MIC90: Aspergillus fumigatus, 24 h; for MIC50: read-out: MIC50, invasion into the lower chamber in human alveoli bilayers; for MIC90: read-out: MIC90, invasion into the lower chamber in human alveoli bilayers
Experimental: as §1, §2

[3] = Body weight loss of immunocompromised, neutropenic mice caused by A. fumigatus infection; type: in vivo, A/J mice; settings: days 1, 2 and 3 (therapeutic); for Body weight loss Day 2 / Body weight loss Day 3: vs weight on day 1
Experimental: Aspergillus fumigatus (ATCC 13073 [strain: NIH 5233], American Type Culture Collection, Manassas, Va., USA) was grown on Malt agar (Nissui Pharmaceutical, Tokyo, Japan) plates for 6-7 days at RT (24±1° C.). Spores were aseptically dislodged from the agar plates and suspended in sterile distilled water with 0.05% Tween 80 and 0.1% agar. On the day of infection, spore counts were assessed by haemocytometer and the inoculum was adjusted to obtain a concentration of 1.67×10^8 spores mL^−1 of physiological saline. […] On day 0, animals were infected with the spore suspension (30 μL intra-nasally).
Test substances were administered intra-nasally (35 μL of a suspension (0.0032-10.0 mg/mL of drug substance in physiological saline) once daily, on days 1, 2 and 3 only (thereby representing a therapeutic treatment regimen). For extended prophylactic treatment, test compounds (35 μL of a suspension of 0.0032 or 0.016 mg/mL in physiological saline) were administered intra-nasally once daily for seven days. One group was dosed 30 min before infection on day 0 but not subsequently, while a second group was further dosed on days 1, 2 and 3 after infection. The effects of these treatment paradigms were compared with those obtained when treatment was restricted in other groups to either one day or 30 min before inoculation and then on days 1, 2 and 3 post infection in both cases. In a final group, dosing was limited still further with animals dosed twice, one day and 30 min before infection only.
Animal body weights were monitored daily and at 6 hr after the last dose of drug was administered on day 3, the animals were anesthetised, the tracheas cannulated and BALF blood and lung tissue were collected. The levels of IL-6 and TNFα in serum were determined using Quantikine® mouse IL-6 or TNF-α ELISA kit (R&D systems, Inc., Minneapolis, Minn., USA) respectively. Aspergillus GM in serum was determination using Platelia GM-EIA kits (Bio-Rad Laboratories, Redmond, Wash., USA). Cut-off index (COI) was calculated by the formula: Cut-off index=OD in sample/OD in cut-off control provided in kit. For tissue fungal load assays, 100 mg of lung tissue was removed aseptically and homogenized in 0.2 mL of 0.1% agar in sterile distilled water. Serially diluted lung homogenates were plated on Malt agar plates (50 μL/plate), and incubated at 24±1° C. for 72 to 96 h. The colonies of A. fumigatus on each plate were counted and the fungal titre presented herein as CFUs per gram of lung tissue.

[4] = Compound (Ia) 0.0032 mg/mL intranasal
[5] = Compound (Ia) 0.016 mg/mL intranasal
[6] = Compound (Ia) 0.08 mg/mL intranasal
[7] = Day 1, TR34-L98H, Compound 0.3 μg/mL upper chamber, posaconazole 0.1 μg/mL lower chamber, combination of both
[8] = Day 2, TR34-L98H, Compound 0.3 μg/mL upper chamber, posaconazole 0.1 μg/mL lower chamber, combination of both
[9] = Day 3, TR34-L98H, Compound 0.3 μg/mL upper chamber, posaconazole 0.1 μg/mL lower chamber, combination of both
[10] = Posaconazole 0.4 mg/mL intranasal
[11] = Posaconazole 2 mg/mL intranasal
[12] = Posaconazole 10 mg/mL intranasal

Row | Structure (SMILES) | MIC50 [1] | MIC90 [1] | GM Levels in the Lower Chamber, OD value ([1]; Day 0, NCPF2010) | GM Levels in the Lower Chamber, % inhibition vs.control ([1]; Day 1, NCPF2010) | GM Levels in the Lower Chamber, OD value ([1]; Day 1, NCPF2010) | GM Levels in the Lower Chamber, % inhibition vs.control ([1]; Day 2, NCPF2010) | GM Levels in the Lower Chamber, OD value ([1]; Day 2, NCPF2010) | GM Levels in the Lower Chamber, % inhibition vs.control ([1]; Day 3, NCPF2010) | GM Levels in the Lower Chamber, OD value ([1]; Day 3, NCPF2010) | GM Levels in the Lower Chamber, % inhibition vs.control ([1]; Day 4, NCPF2010) | GM Levels in the Lower Chamber, OD value ([1]; Day 4, NCPF2010) | GM Levels in the Lower Chamber, % inhibition vs.control ([1]; Day 5, NCPF2010) | GM Levels in the Lower Chamber, OD value ([1]; Day 5, NCPF2010) | GM Levels in the Lower Chamber, % inhibition vs.control ([1]; Day 6, NCPF2010) | GM Levels in the Lower Chamber, OD value ([1]; Day 6, NCPF2010) | GM Levels in the Lower Chamber, % inhibition vs.control ([1]; Day 7, NCPF2010) | GM Levels in the Lower Chamber, OD value ([1]; Day 7, NCPF2010) | DFB50: Days taken to reach a fungal burden of 50% of control ([1]; NCPF2010) | MIC50 [2] | MIC90 [2] | other results
1 | Cc1cc(N2CCN(c3ccc(C(=O)N[C@H]4CCCC[C@@H]4O)cc3)CC2)ccc1OC[C@@H]1CO[C@@](Cn2cncn2)(c2ccc(F)cc2F)C1 [Compound (Ia), 4-(4-(4-(((3R,5R)-5-((1H-1,2,4-triazol-1-yl)methyl)-5-(2,4-difluorophenyl)tetrahydrofuran-3-yl)methoxy)-3-methylphenyl)piperazin-1-yl)-N-((1S,2S)-2-hydroxycyclohexyl) benzamide] | 0.154 µM | 0.185 µM | 0 OD | 66% | 0.24 OD | 1.5% | 1.71 OD | 8.6% | 1.67 OD | −1.6% | 1.68 OD | 0.2% | 1.63 OD | −1.8% | 1.57 OD | 7.1% | 1.54 OD | 1.04 days | 0.261 µM | 0.417 µM | maximum inhibition of GM levels in the bottom chamber ([1]; NCPF2010, administration to the apical chamber, 1 day post infection): exceeding 90%; maximum inhibition of GM levels in the bottom chamber ([2]; TR34/L98H, administration to the apical chamber, 1 day post infection): exceeding 90%; % Inhibition of weight loss Day 2 [3, 4]: 24%; % Inhibition of weight loss Day 3 [3, 4]: 9%; Body weight loss Day 2 [3, 4]: 4.2 ± 1.2%; Body weight loss Day 3 [3, 4]: 9.7 ± 2.1%; % Inhibition of weight loss Day 2 [3, 5]: 35%; % Inhibition of weight loss Day 3 [3, 5]: 9%; Body weight loss Day 2 [3, 5]: 3.6 ± 1.2%; Body weight loss Day 3 [3, 5]: 9.7 ± 3.2%; % Inhibition of weight loss Day 2 [3, 6]: 49%; % Inhibition of weight loss Day 3 [3, 6]: 22%; Body weight loss Day 2 [3, 6]: 2.8 ± 2.4%; Body weight loss Day 3 [3, 6]: 8.3 ± 6.7%
2 | CC[C@@H]([C@H](C)O)n1ncn(-c2ccc(N3CCN(c4ccc(OC[C@@H]5CO[C@@](Cn6cncn6)(c6ccc(F)cc6F)C5)cc4)CC3)cc2)c1=O [Posaconazole, reference compound] | 0.155 µM | 0.212 µM | 0 OD | 89% | 0.074 OD | 1.5% | 1.71 OD | 7.1% | 1.70 OD | −3.0% | 1.70 OD | −3.6% | 1.69 OD | −3.0% | 1.59 OD | 2.5% | 1.62 OD | 1.16 days | 0.315 µM | 0.793 µM | GM Levels in the Lower Chamber, OD value ([2]; Day 0, TR34-L98H, Compound 0.3 μg/mL upper chamber, posaconazole 0.1 μg/mL lower chamber, combination of both): 0 OD; GM Levels in the Lower Chamber, % inhibition vs. vehicle control [2, 7]: 98%; GM Levels in the Lower Chamber, OD value [2, 7]: 0.016 OD; GM Levels in the Lower Chamber, % inhibition vs. vehicle control [2, 8]: 35%; GM Levels in the Lower Chamber, OD value [2, 8]: 0.73 OD; GM Levels in the Lower Chamber, % inhibition vs. vehicle control [2, 9]: −10%; GM Levels in the Lower Chamber, OD value [2, 9]: 1.16 OD; DFB50: Days taken to reach a fungal burden of 50% of control ([2]; TR34-L98H, Compound 0.3 μg/mL upper chamber, posaconazole 0.1 μg/mL lower chamber, combination of both): 1.94 days; % Inhibition of weight loss Day 2 [3, 10]: −15%; % Inhibition of weight loss Day 3 [3, 10]: 1%; Body weight loss Day 2 [3, 10]: 5.4 ± 0.4%; Body weight loss Day 3 [3, 10]: 9.2 ± 4.0%; % Inhibition of weight loss Day 2 [3, 11]: 17%; % Inhibition of weight loss Day 3 [3, 11]: 24%; Body weight loss Day 2 [3, 11]: 3.9 ± 1.3%; Body weight loss Day 3 [3, 11]: 7.1 ± 1.9%; % Inhibition of weight loss Day 2 [3, 12]: 17%; % Inhibition of weight loss Day 3 [3, 12]: 54%; Body weight loss Day 2 [3, 12]: 3.9 ± 1.3%; Body weight loss Day 3 [3, 12]: 4.3 ± 1.8%
